Laboratory results reported in the supplement of paper PMC10307832.

Key:
Assay in all cases: relative viability (nuclei count vs DMSO), 5 days (fraction); higher = more cells survive
Vandetanib + Olaparib = compound: COc1cc2/c(=N/c3ccc(Br)cc3F)nc[nH]c2cc1OCC1CCN(C)CC1 [Vandetanib] + O=C(c1cc(Cc2n[nH]c(=O)c3ccccc23)ccc1F)N1CCN(C(=O)C2CC2)CC1 [Olaparib] (partner 8 µM)
Summary of the method: (§1)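 Nuclei were stained with Hoechst during a one-step fixation (final 0.05% Triton X-100, 1% formaldehyde, 1 ug/ml Hoechst) carried out 5 days after dosing, then counted on 4× images. The cells, lung cancer lines in 1536-well plates, had been dosed by pin tool the day after seeding with one drug alone or a fixed anchor-drug dose plus five library-drug doses (not always all listed) in √10 steps. Relative viability is the nuclei count in treated wells divided by that in vehicle wells, and each value is the median of duplicate plates.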

Vandetanib + Phenformin = compound: COc1cc2/c(=N/c3ccc(Br)cc3F)nc[nH]c2cc1OCC1CCN(C)CC1 [Vandetanib] + N=C(N)NC(=N)NCCc1ccccc1 [Phenformin] (partner 250 µM)
Summary of the method: as §1

[1] = compound: C1=CC=C2C(=C1)N=C(S2)C(C#N)C3=NC(=NC=C3)NCCC4=CN=CC=C4 + COc1cccc2cc(-c3nc([C@H]4CC[C@H](C(=O)O)CC4)n4ncnc(N)c34)[nH]c12 [OSI-027] (partner 0.5 µM)
Summary of the method: as §1

Vandetanib + Alpelisib = compound: COc1cc2/c(=N/c3ccc(Br)cc3F)nc[nH]c2cc1OCC1CCN(C)CC1 [Vandetanib] + Cc1nc(NC(=O)N2CCC[C@H]2C(N)=O)sc1-c1ccnc(C(C)(C)C(F)(F)F)c1 [Alpelisib] (partner 2 µM)
Summary of the method: as §1

| Cell Line | relative viability (Vandetanib + Olaparib; first compound 0.02 µM) | relative viability (Vandetanib + Olaparib; first compound 0.06325 µM) | relative viability (Vandetanib + Olaparib; first compound 0.2 µM) | relative viability (Vandetanib + Olaparib; first compound 0.6325 µM) | relative viability (Vandetanib + Olaparib; first compound 2 µM) | relative viability (Vandetanib + Phenformin; first compound 0.02 µM) | relative viability (Vandetanib + Phenformin; first compound 0.06325 µM) | relative viability (Vandetanib + Phenformin; first compound 0.2 µM) | relative viability (Vandetanib + Phenformin; first compound 0.6325 µM) | relative viability (Vandetanib + Phenformin; first compound 2 µM) | relative viability ([1]; first compound 0.005 µM) | relative viability ([1]; first compound 0.01581 µM) | relative viability ([1]; first compound 0.05 µM) | relative viability ([1]; first compound 0.1581 µM) | relative viability ([1]; first compound 0.5 µM) | relative viability (Vandetanib + Alpelisib; first compound 0.02 µM) | relative viability (Vandetanib + Alpelisib; first compound 0.06325 µM) | relative viability (Vandetanib + Alpelisib; first compound 0.2 µM) | relative viability (Vandetanib + Alpelisib; first compound 0.6325 µM) | relative viability (Vandetanib + Alpelisib; first compound 2 µM) |
| --- | --- | --- | --- | --- | --- | --- | --- | --- | --- | --- | --- | --- | --- | --- | --- | --- | --- | --- | --- | --- |
| 201T | 0.79 | 0.829 | 0.796 | 0.791 | 0.817 | 0.466 | 0.406 | 0.427 | 0.403 | 0.424 | 0.935 | 0.696 | 0.7 | 0.833 | 0.779 | 1.08 | 0.959 | 0.985 | 0.977 | 0.995 |
| LK-2 | 0.846 | 0.71 | 0.724 | 0.72 | 0.669 | 0.381 | 0.5 | 0.419 | 0.444 | 0.408 | 0.2 | 0.187 | 0.201 | 0.189 | 0.195 | 0.951 | 1.04 | 1.11 | 1.16 | 1.11 |
| SW 1573 | 0.434 | 0.416 | 0.393 | 0.521 | 0.489 | 0.357 | 0.382 | 0.397 | 0.347 | 0.351 | 0.497 | 0.54 | – | 0.923 | 0.557 | 0.75 | 0.726 | 0.753 | 0.969 | 0.743 |
| NCI-H647 | 0.626 | 0.633 | 0.547 | 0.502 | 0.454 | 0.524 | 0.51 | 0.412 | 0.513 | 0.501 | 0.638 | 0.585 | 0.491 | 0.756 | 0.527 | 1.03 | 1.1 | 1.11 | 1.1 | 0.786 |
| HCC-78 | 0.823 | 0.756 | 0.748 | 0.913 | 0.703 | 0.744 | 0.638 | 0.662 | 0.664 | 0.627 | 0.367 | 0.35 | 0.332 | 0.438 | 0.36 | 0.346 | 0.32 | 0.337 | 0.321 | 0.288 |
| NCI-H727 | 0.727 | 0.68 | 0.662 | 0.739 | 0.621 | 0.565 | 0.468 | 0.712 | 0.283 | 0.448 | 0.814 | 0.526 | 0.568 | 0.748 | 0.508 | 0.619 | 0.56 | 0.405 | 0.496 | 0.322 |
| BEN | 1.21 | 1.02 | 1.03 | 1.04 | 1.08 | 0.266 | 0.278 | 0.279 | 0.292 | 0.262 | 0.427 | 0.283 | 0.274 | 0.625 | 0.587 | 0.976 | 0.897 | 0.928 | 1.04 | 0.867 |
| NCI-H650 | 0.359 | 0.361 | 0.392 | 0.409 | 0.445 | 0.464 | 0.448 | – | 0.472 | 0.364 | 0.521 | – | 0.544 | 0.475 | 0.486 | 1.13 | 0.998 | 1.08 | 1.04 | 0.905 |
